Test results taken from US20260232768A1, “TREATMENT OF ATOPIC DERMATITIS WITH POLYETHYLENE GLYCOL-MODIFIED INTERLEUKIN 2, GLUCOCORTICOID AND HYALURONIC ACID” (priority 2023, published 2026).
Marks after values point to notes of the source that are not given here.

Columns and labels:
[1] = system: OVA induced atopic dermatitis (AD) mouse model; experiment: OVA induced atopic dermatitis (AD) mouse model, skin inflammation status scoring; type: in vivo, BALB/c mice; conditions: AD model mice, topical patch for 3 consecutive days; total score 0-12; 6 mice per group
Protocol: 10 μg OVA was mixed with 2 mg of aluminum hydroxide in 200 μL of phosphate buffer (PBS) solution, intraperitoneally injected to sensitize mice, once every week (at day 0, 7 and 14), each mouse was injected 3 times, 200 μL each time. On day 14, mice were anesthetized using pentobarbital intraperitoneal injection. […] The OVA patch was prepared by wetting a 1.5×1.5 cm^2 sterile gauze in a solution of 1 mg/mL of OVA (dissolved in PBS) (approximately 100 μL of OVA solution), and was attached using a transparent dressing to the back skin after epilation and replaced daily for 3-7 days to develop dermatitis manifestation, and the status of the back skin of the mice was recorded photographically on day 4~5 after inducing mouse dermatitis (the dermatitis manifestation was most obvious), and the skin inflammation status was scored. […]
Skin inflammation status scores assess dermatitis severity clinically. The total score was 0 to 12, evaluated from four aspects, edema, erythema, scaling and erosion, respectively, an individual score was 0-3 (0, no; 1, mild; 2, moderate; 3, severe), and the final score was the sum of each individual term [SCHWARTZ C, et al. Spontaneous atopic dermatitis in mice with a defective skin barrier is independent of ILC2 and mediated by IL-1β.

[2] = system: CD25+FoxP3+ cells in spleen CD3+CD4+ lymphocytes and PD-1+ cells in CD3+CD4+CD25+FoxP3+ cells; experiment: Intraperitoneal injection in physiological model mice, spleen Treg and PD-1 by flow cytometry; type: in vivo, BALB/c mice
Description: We intraperitoneally injected PEG-IL-2 modified with non-branched PEG of different molecular weight sizes in physiological model mice, and detected FoxP3+ regulatory T cells and the expression of PD-1 in spleen cells on day 4.

Molecule | Dermatitis score (χ ± s) [1] | up-regulation of FoxP3+ regulatory T cells in spleen (in words) ([2]; detected on day 4) | expression of PD-1 by regulatory T cells (in words) ([2]; spleen, day 4)
CCCC1O[C@@H]2C[C@H]3[C@@H]4CCC5=CC(=O)C=C[C@]5(C)[C@H]4[C@@H](O)C[C@]3(C)[C@]2(C(=O)CO)O1 (stereo partly drawn) [Budesonide alone, budesonide] | 2.333 ± 1.211*^ | – | –
normal IL-2: recombinant human interleukin 2 not modified with PEG, SEQ ID NO: 1, 15 kD | – | did not up-regulate Tregs | can promote the expression of PD-1
